Reference: patent US9403850B2, “Beta-lactamase inhibitors” (priority 2013, dated 2016)

How the values were obtained:
SHV-5 = biological target: T1, SHV-5 (Klebsiella pneumoniae, UniProt P0A3M1); assay: β-Lactamase enzyme inhibition assay, SHV-5 (cefotaxime substrate); assay type: biochemical; conditions: 15 min preincubation at 37° C., read-out: IC50, Class A SHV-5
T1 construct: expressed as native untagged proteins; made in house; host or cells: E. coli BL21(DE3)
Method: (§1) For SHV-5, Kpc-2, p99AmpC and OXA-1 β-lactamases, E. coli BL21(DE3) bacterial cells carrying expression plasmids (expressed as native untagged proteins) for the individual β-lactamases were grown in 1 L of Superbroth (Teknova Inc. Hollister, CA) supplemented with 100 μg/ml kanamycin selection and 1×5052 (0.5% glycerol, 0.05% glucose and 0.2% α-lactose) at 35° C. for 18-20 hours. Cells were harvested by centrifugation (4,000×g, 4° C., 20 min), resuspended in 50 ml of 10 mM HEPES pH 7.5 (1/20 of the initial volume). The cells were lysed by sonication (5 pulses of 45 seconds) at 45 W on ice. The lysates were clarified by centrifugation at 10,000×g for 40 minutes at 4° C. […] Active fractions were pooled concentrated, quantitated by BCA protein determination (Thermo Scientific, Rockford, Ill.), dialyzed into PBS and frozen at −80° C. in 20% glycerol until use.
(§2) An equal volume of diluted enzyme stock was added, and the plates were incubated at 37° C. for 15 min. […] Absorbance at 486 nm was immediately monitored for 10 min using a Biotek Powerwave XS2 microplate spectrophotometer using the GEN5 softweare package (Biotek Instruments, Winooski Vt.). […] Maximum rates of hydrolysis were compared to those in control wells (without inhibitors), and percentages of enzyme inhibition were calculated for each concentration of inhibitor. […]

KPC-2 = biological target: T2, KPC-2 (Klebsiella pneumoniae, UniProt Q9F663); assay: β-Lactamase enzyme inhibition assay, KPC-2 (imipenem substrate); assay type: biochemical; conditions: 15 min preincubation at 37° C., read-out: IC50, Class A KPC-2
T2 construct: expressed as native untagged proteins; made in house; host or cells: E. coli BL21(DE3)
T2 sequence (Q9F663 25-293 limits assumed): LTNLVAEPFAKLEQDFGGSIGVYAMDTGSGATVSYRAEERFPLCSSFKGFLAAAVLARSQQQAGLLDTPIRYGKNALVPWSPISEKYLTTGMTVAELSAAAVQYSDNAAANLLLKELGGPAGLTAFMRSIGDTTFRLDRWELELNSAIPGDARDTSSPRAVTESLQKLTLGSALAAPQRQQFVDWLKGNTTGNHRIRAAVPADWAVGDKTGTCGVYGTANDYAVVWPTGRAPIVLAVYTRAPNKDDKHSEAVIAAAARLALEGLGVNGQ
Method: as §1, §2

VIM-2 = biological target: T3, VIM-2 (Escherichia coli, UniProt Q5U7L7); assay: β-Lactamase enzyme inhibition assay, VIM-2 (nitrocefin substrate); assay type: biochemical; conditions: nitrocefin substrate 100 μM, 15 min preincubation at 37° C.; read-out: IC50, Class B VIM-2
T3 construct: made in house; host or cells: E. coli BL21(DE3)
Outline: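 Purified VIM-2 (Q sepharose anion exchange, HEPES pH 7.5) preincubated with inhibitor 15 min at 37° C. Nitrocefin added at 100 μM final; absorbance at 486 nm monitored 10 min. IC50 from inhibition of initial hydrolysis rate versus inhibitor-free controls.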

p99 AmpC = biological target: T4, p99 AmpC (Enterobacter cloacae, UniProt P05364); assay: β-Lactamase enzyme inhibition assay, p99 AmpC (nitrocefin substrate); assay type: biochemical; conditions: nitrocefin substrate 100 μM, 15 min preincubation at 37° C.; read-out: IC50, Class C AmpC
T4 construct: expressed as native untagged proteins; made in house; host or cells: E. coli BL21(DE3)
T4 sequence (P05364 21-381): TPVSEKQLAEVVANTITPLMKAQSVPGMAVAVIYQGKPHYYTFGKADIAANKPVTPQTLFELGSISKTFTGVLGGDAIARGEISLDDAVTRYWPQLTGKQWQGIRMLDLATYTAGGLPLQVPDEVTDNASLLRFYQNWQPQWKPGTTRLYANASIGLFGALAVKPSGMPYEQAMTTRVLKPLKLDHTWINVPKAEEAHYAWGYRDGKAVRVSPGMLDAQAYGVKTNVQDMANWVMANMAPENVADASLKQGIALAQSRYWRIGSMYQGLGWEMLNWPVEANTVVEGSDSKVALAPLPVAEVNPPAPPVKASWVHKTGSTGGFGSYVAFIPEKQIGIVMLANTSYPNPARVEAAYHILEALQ
Method: as §1, §2

OXA-1 = biological target: T5, OXA-1 (Escherichia coli, UniProt P13661); assay: β-Lactamase enzyme inhibition assay, OXA-1 (nitrocefin substrate); assay type: biochemical; conditions: nitrocefin substrate 100 μM, 15 min preincubation at 37° C.; read-out: IC50, Class D OXA-1
T5 construct: expressed as native untagged proteins; made in house; host or cells: E. coli BL21(DE3)
T5 sequence (P13661 26-276): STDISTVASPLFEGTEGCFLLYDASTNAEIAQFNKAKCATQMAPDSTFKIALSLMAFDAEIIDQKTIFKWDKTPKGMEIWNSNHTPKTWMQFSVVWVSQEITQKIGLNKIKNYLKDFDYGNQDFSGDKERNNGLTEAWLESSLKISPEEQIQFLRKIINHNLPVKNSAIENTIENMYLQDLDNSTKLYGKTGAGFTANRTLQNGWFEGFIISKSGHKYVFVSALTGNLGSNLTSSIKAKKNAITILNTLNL
Method: as §1, §2

[1] = tested on: E. coli ESBL4 expressing CTX-M-15; assay: Broth microdilution MIC assay, partner ceftazidime;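 note: ceftazidime held fixed at 4 µg/mL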; assay type: cell-based; conditions: Escherichia coli, read-out: MIC of Exemplary Compounds in presence of fixed β-lactams, Fixed CAZ, E. coli ESBL4 CTX-M-15
[2] = tested on: E. cloacae 144200 expressing Class C P99 AmpC; assay: Broth microdilution MIC assay, partner ceftazidime;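 note: ceftazidime held fixed at 4 µg/mL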; assay type: cell-based; conditions: Enterobacter cloacae, read-out: MIC of Exemplary Compounds in presence of fixed β-lactams, Fixed CAZ, E. cl. 144200 p99 AmpC
[3] = tested on: K. pneumoniae 156319 expressing KPC-3; assay: Broth microdilution MIC assay, partner meropenem; assay type: cell-based; conditions: Klebsiella pneumoniae, read-out: MIC of Exemplary Compounds in presence of fixed β-lactams, Fixed Mero, K.P. 156319 KPC-3
[4] = tested on: P. aeruginosa Ps296 expressing VIM-2; assay: Broth microdilution MIC assay, partner meropenem; assay type: cell-based; conditions: Pseudomonas aeruginosa, read-out: MIC of Exemplary Compounds in presence of fixed β-lactams, Fixed Mero, P. aerug. Ps296 VIM-2
[5] = tested on: K. pneumoniae A-1797 expressing KPC-2 and VIM-4; assay: Broth microdilution MIC assay, partner meropenem; assay type: cell-based; conditions: Klebsiella pneumoniae, read-out: MIC of Exemplary Compounds in presence of fixed β-lactams, Fixed Mero, K.P. A-1797 KPC-2 VIM-4
[6] = tested on: S. aureus MSSA-7 producing penicillinase PC-1; assay: Broth microdilution MIC assay, partner piperacillin; assay type: cell-based; conditions: Staphylococcus aureus, fixed piperacillin 4 μg/mL, read-out: MIC of Exemplary Compounds in presence of fixed β-lactams, Fixed Pip, S. aureus MSSA-7 PC-1

T1 sequence (P0A3M1 22-286): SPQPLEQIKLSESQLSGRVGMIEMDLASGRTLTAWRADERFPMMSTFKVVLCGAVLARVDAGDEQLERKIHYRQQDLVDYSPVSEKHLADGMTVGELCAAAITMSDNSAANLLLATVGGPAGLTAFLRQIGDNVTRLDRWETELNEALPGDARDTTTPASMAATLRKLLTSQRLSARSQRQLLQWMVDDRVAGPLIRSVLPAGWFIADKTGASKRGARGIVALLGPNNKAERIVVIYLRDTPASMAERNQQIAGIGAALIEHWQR

Row | SMILES | IC50 (SHV-5) | IC50 (KPC-2) | IC50 (VIM-2) | IC50 (p99 AmpC) | IC50 (OXA-1) | MIC [1] | MIC [2] | MIC [3] | MIC [4] | MIC [5] | MIC [6]
1 | O=C(Cc1ccc2c(c1)CNC2)N[C@H]1Cc2cccc(C(=O)O)c2OB1O [Example 36, (3R)-2-hydroxy-3-[(2-isoindolin-5-ylacetyl)amino]-3,4-dihydro-1,2-benzoxaborinine-8-carboxylic acid] | < 100 nM | < 100 nM | 100 to 1000 nM | < 100 nM | < 100 nM | < 4 µg/mL | < 4 µg/mL | < 4 µg/mL | < 4 µg/mL | > 32 µg/mL | < 4 µg/mL
2 | O=C(O)c1ccccc1C(=O)N[C@H]1Cc2cccc(C(=O)O)c2OB1O [Example 53, (R)-3-(2-carboxybenzamido)-2-hydroxy-3,4-dihydro-2H-benzo[e][1,2]oxaborinine-8-carboxylic acid] |  |  | 1000 to 10000 nM |  |  | < 4 µg/mL | < 4 µg/mL | < 4 µg/mL | > 32 µg/mL | 8 to 32 µg/mL | < 4 µg/mL
3 | NCCNC(=O)c1ccccc1C(=O)N[C@H]1Cc2cccc(C(=O)O)c2OB1O [Example 54, (R)-3-(2-(2-aminoethylcarbamoyl)benzamido)-2-hydroxy-3,4-dihydro-2H-benzo[e][1,2]oxaborinine-8-carboxylic acid] |  |  | 1000 to 10000 nM |  |  | < 4 µg/mL | < 4 µg/mL | 8 to 32 µg/mL | < 4 µg/mL | > 32 µg/mL | > 32 µg/mL
4 | CC(C)NCc1cc(C(=O)N[C@H]2Cc3cccc(C(=O)O)c3OB2O)ccc1CN [Example 55, (R)-3-(4-(aminomethyl)-3-((isopropylamino)methyl)benzamido)-2-hydroxy-3,4-dihydro-2H-benzo[e][1,2]oxaborinine-8-carboxylic acid] |  |  | 100 to 1000 nM |  |  | < 4 µg/mL | < 4 µg/mL | 8 to 32 µg/mL | < 4 µg/mL | > 32 µg/mL | > 32 µg/mL
5 | CC(C)NCc1ccc(C(=O)N[C@H]2Cc3cccc(C(=O)O)c3OB2O)cc1CNC(C)C [Example 56, (R)-3-(3,4-bis((isopropylamino)methyl)benzamido)-2-hydroxy-3,4-dihydro-2H-benzo[e][1,2]oxaborinine-8-carboxylic acid] |  |  | 100 to 1000 nM |  |  | < 4 µg/mL | < 4 µg/mL | < 4 µg/mL | < 4 µg/mL | < 4 µg/mL | < 4 µg/mL
6 | NCCNc1ccc(CC(=O)N[C@H]2Cc3cccc(C(=O)O)c3OB2O)cc1 [Example 57, (R)-3-(2-(4-(2-aminoethylamino)phenyl)acetamido)-2-hydroxy-3,4-dihydro-2H-benzo[e][1,2]oxaborinine-8-carboxylic acid] |  |  | 1000 to 10000 nM |  |  | < 4 µg/mL | < 4 µg/mL | 8 to 32 µg/mL | < 4 µg/mL | < 4 µg/mL | < 4 µg/mL
7 | NCCOc1ccc(CC(=O)N[C@H]2Cc3cccc(C(=O)O)c3OB2O)cc1OCCN [Example 58, (R)-3-(2-(3,4-bis(2-aminoethoxy)phenyl)acetamido)-2-hydroxy-3,4-dihydro-2H-benzo[e][1,2]oxaborinine-8-carboxylic acid] |  |  | 100 to 1000 nM |  |  | < 4 µg/mL | < 4 µg/mL | < 4 µg/mL | < 4 µg/mL | 8 to 32 µg/mL | < 4 µg/mL
8 | NCCOc1ccc(CC(=O)N[C@H]2Cc3cccc(C(=O)O)c3OB2O)cc1O [Example 59, (R)-3-(2-(4-(2-aminoethoxy)-3-hydroxyphenyl)acetamido)-2-hydroxy-3,4-dihydro-2H-benzo[e][1,2]oxaborinine-8-carboxylic acid] |  |  | 100 to 1000 nM |  |  | < 4 µg/mL | < 4 µg/mL | < 4 µg/mL | < 4 µg/mL | 8 to 32 µg/mL | < 4 µg/mL
9 | NCCNc1ccc(CC(=O)N[C@H]2Cc3cccc(C(=O)O)c3OB2O)cn1 [Example 60, (R)-3-(2-(6-(2-aminoethylamino)pyridin-3-yl)acetamido)-2-hydroxy-3,4-dihydro-2H-benzo[e][1,2]oxaborinine-8-carboxylic acid] |  |  | 100 to 1000 nM |  |  | < 4 µg/mL | < 4 µg/mL | < 4 µg/mL | < 4 µg/mL | 8 to 32 µg/mL | < 4 µg/mL
10 | NCCNc1ccc(CC(=O)N[C@H]2Cc3cccc(C(=O)O)c3OB2O)c[n+]1[O-] [Example 61, (R)-2-(2-aminoethylamino)-5-(2-(8-carboxy-2-hydroxy-3,4-dihydro-2H-benzo[e][1,2]oxaborinin-3-ylamino)-2-oxoethyl)pyridine 1-oxide] |  |  | 100 to 1000 nM |  |  | < 4 µg/mL | < 4 µg/mL | < 4 µg/mL | < 4 µg/mL | < 4 µg/mL | < 4 µg/mL
11 | NCc1cc(C(=O)N[C@H]2Cc3cccc(C(=O)O)c3OB2O)cnc1CN [Example 62, (R)-3-(5,6-bis(aminomethyl)nicotinamido)-2-hydroxy-3,4-dihydro-2H-benzo[e][1,2]oxaborinine-8-carboxylic acid] |  |  | 100 to 1000 nM |  |  | < 4 µg/mL | < 4 µg/mL | < 4 µg/mL | < 4 µg/mL | < 4 µg/mL | < 4 µg/mL
12 | NCc1cnc(C(=O)N[C@H]2Cc3cccc(C(=O)O)c3OB2O)cc1CN [Example 63] |  |  | < 100 nM |  |  | < 4 µg/mL | < 4 µg/mL | < 4 µg/mL | < 4 µg/mL | < 4 µg/mL | < 4 µg/mL
